The target of assay [1] is T1, Gag-Pol polyprotein [600-1027,R876K]/[600-1155] (Human immunodeficiency virus 1, UniProt P03366, R876K).
T1 construct: 600-1027; 600-1155
As to the kind of experiment: HIV-1 RT Assay.

Assay [2] deals with T2, Gag-Pol polyprotein [600-1027,Y780C]/[600-1155,Y780C] (Human immunodeficiency virus 1, UniProt P03366, Y780C).
T2 construct: 600-1027; 600-1155
The assay is described as follows: HIV-1 RT Assay.

`CCN1c2ncccc2C(=O)N(C)c2cccnc21` displayed an IC50 in assay [1] (pH 7.8, 25 °C) of 130 nM. With `CCC=Nc1ccc2c(n1)N(CC)c1ncccc1C(=O)N2C`, the concentration for half-maximal inhibition (IC50) is 390 nM in assay [1] and greater than 1000 nM in assay [2]. Take `CCN1c2ncccc2C(=O)Nc2c(C)cc(C)nc21` [2-ethyl-5,7-dimethyl-2,4,9,15-tetraazatricyclo[9.4.0.0^{3,8}]pentadeca-1(11),3,5,7,12,14-hexaen-10-one]: the IC50 in assay [2] (pH 7.8, 25 °C) is greater than 1000 nM. `CCN1c2ncccc2C(=O)N(C)c2ccc(-c3cccc(O)c3)nc21` [2-ethyl-5-(3-hydroxyphenyl)-9-methyl-2,4,9,15-tetraazatricyclo[9.4.0.0^{3,8}]pentadeca-1(11),3,5,7,12,14-hexaen-10-one]: half-maximal inhibition in assay [1] (IC50) required 100 nM. `CCN1c2ncccc2C(=O)Nc2c(C)cc(N(C)CCO)nc21` [2-ethyl-5-[(2-hydroxyethyl)(methyl)amino]-7-methyl-2,4,9,15-tetraazatricyclo[9.4.0.0^{3,8}]pentadeca-1(11),3,5,7,12,14-hexaen-10-one]: the IC50 in assay [2] is greater than 1000 nM. Same read-out and setting: the result for `CCN1c2ncccc2C(=O)Nc2c(C)cc(NCCO)nc21` [2-ethyl-5-[(2-hydroxyethyl)amino]-7-methyl-2,4,9,15-tetraazatricyclo[9.4.0.0^{3,8}]pentadeca-1(11),3,5,7,12,14-hexaen-10-one] reads greater than 1000 nM; that for `CCN1c2ncccc2C(=O)Nc2c(C)cc(NCCCO)nc21` [2-ethyl-5-[(3-hydroxypropyl)amino]-7-methyl-2,4,9,15-tetraazatricyclo[9.4.0.0^{3,8}]pentadeca-1(11),3,5,7,12,14-hexaen-10-one], greater than 1000 nM; that for `CCN1c2ncccc2C(=O)N(C)c2ccc(=O)[nH]c21` [2-ethyl-5-hydroxy-9-methyl-2,4,9,15-tetraazatricyclo[9.4.0.0^{3,8}]pentadeca-1(11),3,5,7,12,14-hexaen-10-one], greater than 1000 nM. Same read-out and setting: with `CCN1c2ncccc2C(=O)Nc2c(C)cc(SC)nc21` [2-ethyl-7-methyl-5-(methylsulfanyl)-2,4,9,15-tetraazatricyclo[9.4.0.0^{3,8}]pentadeca-1(11),3,5,7,12,14-hexaen-10-one] the figure was greater than 1000 nM. On to `CCN1c2ncccc2C(=O)Nc2c(C)cc(C(C)C)nc21` [2-ethyl-7-methyl-5-(propan-2-yl)-2,4,9,15-tetraazatricyclo[9.4.0.0^{3,8}]pentadeca-1(11),3,5,7,12,14-hexaen-10-one], for which the IC50 in assay [2] (pH 7.8, 25 °C) is greater than 1000 nM. In assay [2], `CCN1c2ncccc2C(=O)Nc2c(C)cc(N3CCSCC3)nc21` [2-ethyl-7-methyl-5-(thiomorpholin-4-yl)-2,4,9,15-tetraazatricyclo[9.4.0.0^{3,8}]pentadeca-1(11),3,5,7,12,14-hexaen-10-one] gave an IC50 greater than 1000 nM. With `CCN1c2ncccc2C(=O)N(C)c2ccc(-c3ncco3)nc21` [2-ethyl-9-methyl-5-(1,3-oxazol-2-yl)-2,4,9,15-tetraazatricyclo[9.4.0.0^{3,8}]pentadeca-1(11),3,5,7,12,14-hexaen-10-one], the values for the half-maximal inhibitory concentration (IC50) in assay [1] and in assay [2] were 110 nM and 560 nM, respectively.

In the case of `CCN1c2ncccc2C(=O)N(C)c2ccc(-c3cnco3)nc21` [2-ethyl-9-methyl-5-(1,3-oxazol-5-yl)-2,4,9,15-tetraazatricyclo[9.4.0.0^{3,8}]pentadeca-1(11),3,5,7,12,14-hexaen-10-one], the IC50 in assay [1] came to 220 nM; in assay [2] it was 820 nM. For the molecule `CCN1c2ncccc2C(=O)N(C)c2ccc(-c3cncs3)nc21` [2-ethyl-9-methyl-5-(1,3-thiazol-5-yl)-2,4,9,15-tetraazatricyclo[9.4.0.0^{3,8}]pentadeca-1(11),3,5,7,12,14-hexaen-10-one], the 50% inhibitory concentration (IC50) amounted to 100 nM in assay [1] and 240 nM in assay [2]. As for `CCN1c2ncccc2C(=O)N(C)c2ccc(N3CCCCC3)nc21` [2-ethyl-9-methyl-5-(piperidin-1-yl)-2,4,9,15-tetraazatricyclo[9.4.0.0^{3,8}]pentadeca-1(11),3,5,7,12,14-hexaen-10-one], the IC50 in assay [2] was greater than 1000 nM.

In the case of `CCN1c2ncccc2C(=O)N(C)c2ccc(-c3ccccn3)nc21` [2-ethyl-9-methyl-5-(pyridin-2-yl)-2,4,9,15-tetraazatricyclo[9.4.0.0^{3,8}]pentadeca-1(11),3,5,7,12,14-hexaen-10-one], the IC50 in assay [1] was 180 nM.

The molecule `CCN1c2ncccc2C(=O)N(C)c2ccc(-c3ccsc3)nc21` [2-ethyl-9-methyl-5-(thiophen-3-yl)-2,4,9,15-tetraazatricyclo[9.4.0.0^{3,8}]pentadeca-1(11),3,5,7,12,14-hexaen-10-one] returned a half-inhibitory concentration (IC50) in assay [1] of 100 nM. Consider `CCN1c2ncccc2C(=O)N(C)c2ccc(-c3nccs3)nc21` [5,11-dihydro-11-ethyl-5-methyl-2-(2-thiazolyl)-6H-dipyrido[3,2-b:2 ,3-e][1,4]diazepin-6-one], for which the 50% inhibitory concentration (IC50) worked out at 380 nM in assay [1] and 1100 nM in assay [2]. In assay [1], `CCN1c2ncccc2C(=O)N(C)c2ccc(-c3cccc(N)c3)nc21` [5,11-dihydro-11-ethyl-5-methyl-2-(3-aminophenyl)-6H-dipyrido[3,2-b:2 ,3-e][1,4]diazepin-6-one] gave a half-inhibitory concentration (IC50) of 70 nM. Turning to `CCN1c2ncccc2C(=O)N(C)c2ccc(N)nc21` [5-amino-2-ethyl-9-methyl-2,4,9,15-tetraazatricyclo[9.4.0.0^{3,8}]pentadeca-1(11),3,5,7,12,14-hexaen-10-one], the 50% inhibitory concentration (IC50) in assay [1] and in assay [2] was greater than 1000 nM throughout.

In turn, `CN1C(=O)c2cccnc2N(C2CC2)c2nc(Cl)ccc21` [5-chloro-2-cyclopropyl-9-methyl-2,4,9,15-tetraazatricyclo[9.4.0.0^{3,8}]pentadeca-1(11),3,5,7,12,14-hexaen-10-one] gave a half-maximal inhibitory concentration (IC50) in assay [1] (pH 7.8, 25 °C) of 90 nM.

As for `CCN1c2ncccc2C(=O)Nc2c(C)cc(C(C)(C)C)nc21` [5-tert-butyl-2-ethyl-7-methyl-2,4,9,15-tetraazatricyclo[9.4.0.0^{3,8}]pentadeca-1(11),3,5,7,12,14-hexaen-10-one], the IC50 is greater than 1000 nM in assay [1] (pH 7.8, 25 °C) and greater than 1000 nM in assay [2] (pH 7.8, 25 °C).

For the origin of these results see BindingDB's records for doi:10.1021/jm00024a010 (Boehringer Ingelheim Pharmaceuticals, 1995).
